In paper PMC5187884, “In Vitro Antitumor Active Gold(I) Triphenylphosphane Complexes Containing 7-Azaindoles” (International Journal of Molecular Sciences, 2016):

Legend:
[1] = test system: A2780 human ovarian carcinoma cell line; assay: In vitro cytotoxicity testing (MTT assay), A2780; type: cell-based; details: 24 h exposure time; for IC50: MTT assay, read-out: IC50 ± SD, A2780
Protocol: Human A2780 ovarian carcinoma, A2780R cisplatin-resistant ovarian carcinoma and MRC-5 normal fibroblast cell lines were supplied by the European Collection of Cell Cultures (ECACC). The cell lines were cultured, according to the supplier´s instructions, in RPMI-1640 medium supplemented with 10% of fetal calf serum, 1% of 2 mM glutamine, and 1% penicillin/streptomycin. All cell lines were grown as adherent monolayers at 37 °C and 5% CO2 in a humidified atmosphere.

[2] = test system: A2780R cisplatin-resistant ovarian carcinoma cell line; assay: In vitro cytotoxicity testing (MTT assay), A2780R; type: cell-based, human; details: 24 h exposure time; for IC50: MTT assay, read-out: IC50 ± SD, A2780R
Protocol: (§1) The cell lines were cultured, according to the supplier´s instructions, in RPMI-1640 medium supplemented with 10% of fetal calf serum, 1% of 2 mM glutamine, and 1% penicillin/streptomycin. All cell lines were grown as adherent monolayers at 37 °C and 5% CO2 in a humidified atmosphere.

[3] = test system: MRC-5 normal fibroblast cell line; assay: In vitro cytotoxicity testing (MTT assay), MRC-5; type: cell-based, human; details: 24 h exposure time; for IC50: MTT assay, read-out: IC50 ± SD, MRC5
Protocol: as §1

[4] = test system: A2780 human ovarian carcinoma cells; assay: Cell cycle analysis by flow cytometry (PI/RNase staining); type: cell-based; details: A2780 cells treated at IC50 concentration, 24 h; for S cell cycle phase population: control 9.0% ± 1.9%; for G2 cell cycle phase population: control 24.0% ± 2.6%; for G0/G1 cell cycle phase population: control 66.3% ± 3.8%
Protocol: The obtained results are depicted in Figure 4.
A2780 cells (1.0 × 10^6 per well) were pre-incubated in a six-well plate for 24 h, as described above. […] After 24 h, floating cells were collected and attached cells were harvested using trypsin/EDTA in PBS. Total cells were washed twice with PBS and fixed in 70% ethanol. Cells were resuspended in PBS and DNA staining was achieved by a solution of propidium iodide (PI) supplemented with RNase A (30 min, 25 °C, in the dark). After that, the cells were washed (PBS), resuspended (PBS), and DNA content was measured using flow cytometry (CytoFlex, Beckman Coulter, Brea, CA, USA) detecting emission of DNA-bound PI (maximum at 617 nm) after excitation at 535 nm. The data were analysed using CytExpert^TM software (Beckman Coulter).

[5] = Solubility
[6] = Solution behaviour in water/DMF mixture (1H and 31P-NMR); type: physicochemical; details: 50% DMF-d7/50% D2O, ca. 1 mM, 48 h at ambient temperature
Protocol: Only one set of ^1H-NMR signals (e.g., C3–H signal at 6.50 ppm) and one ^31P-NMR signal (34.8 ppm) were detected on the fresh solution, and no changes were observed even after 48 h of standing at ambient temperature. The positions of the ^1H and ^31P-NMR signals detected on the solution of 8 in the 50% DMF-d7/50% D2O mixture were different from those of free H2Me4Claza (C3–H signal at 6.32 ppm; Figure 3), PPh3 (^31P-NMR signal at −4.7 ppm), the oxidized triphenylphosphane (O=PPh3; ^31P-NMR signal at 32.4 ppm) or [AuCl(PPh3)] (^31P-NMR signal at 34.2 ppm) dissolved in the same mixture of solvents (Figure S6).
(§2) Complex 8 and [AuCl(PPh3)] […] Similar solutions were prepared with 1 or 5 mol equivs of GSH, Cys, or BSA. ^1H and ^31P-NMR spectra were recorded at different time points over 48 h at 300 K. The obtained ^1H-NMR spectra were calibrated against the residual signal of water found at 4.75 ppm, while the ^31P-NMR spectra were referenced as described above.

[7] = target: T1, bovine serum albumin (BSA) (Bos taurus, UniProt P02769); assay: Interaction study with bovine serum albumin (NMR); details: 50% DMF-d7/50% D2O
T1 construct: purchased Sigma-Aldrich Co. (Prague, Czech Republic) and Fisher-Scientific Co. (Pardubice, Czech Republic)
T1 sequence (P02769 25-607): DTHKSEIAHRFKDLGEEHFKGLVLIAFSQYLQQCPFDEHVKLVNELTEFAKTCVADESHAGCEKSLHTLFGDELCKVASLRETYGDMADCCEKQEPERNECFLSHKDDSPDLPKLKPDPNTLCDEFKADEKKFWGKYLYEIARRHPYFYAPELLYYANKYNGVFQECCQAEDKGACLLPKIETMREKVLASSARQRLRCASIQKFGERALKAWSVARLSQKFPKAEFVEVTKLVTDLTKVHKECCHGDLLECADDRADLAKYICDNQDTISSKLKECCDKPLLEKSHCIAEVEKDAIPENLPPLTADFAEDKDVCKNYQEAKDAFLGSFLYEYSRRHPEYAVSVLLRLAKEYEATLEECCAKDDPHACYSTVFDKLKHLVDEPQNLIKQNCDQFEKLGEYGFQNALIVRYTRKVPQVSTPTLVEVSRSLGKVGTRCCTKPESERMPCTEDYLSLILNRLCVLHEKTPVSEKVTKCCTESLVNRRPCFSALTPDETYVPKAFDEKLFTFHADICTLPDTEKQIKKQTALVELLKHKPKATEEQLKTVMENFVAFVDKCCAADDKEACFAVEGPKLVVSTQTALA
Protocol: An interaction of 8 with bovine serum albumin (BSA) resulted immediately in a white turbidity, which was subsequently removed by centrifugation (13,000 rpm for 3 min; Mini Spin, Eppendorf AG, Hamburg, Germany). The ^1H-NMR spectrum recorded on the obtained supernatant contained the signals of the released N-donor ligand, with the signal positions (e.g., C3–H signal at 6.36 ppm) being consistent with those detected for free H2Me4Claza in the same mixture of solvents (Figure S8). No signals were detected in the ^31P-NMR spectra recorded on the mentioned supernatant.
as §2

[8] = Stability in DMF-d7 (1H and 31P-NMR); type: physicochemical; details: 1H-NMR and 31P-NMR, ambient temperature
[9] = test system: A2780 cells; parameters: method as in PMID 22322463; details: cited from earlier work
[10] = test system: A2780 cells with acquired resistance to cisplatin; parameters: method as in PMID 22322463; details: cited from earlier work
[11] = test system: A549 human lung carcinoma cells; parameters: method as in PMID 24763048; details: as compared with untreated cells; cited from earlier work
[12] = test system: U266 human myeloma cells; parameters: method as in PMID 20542334; details: cited from earlier work

Row | Structure (SMILES) | IC50 [1] | IC50 [2] | IC50 [3] | RF = resistance factor (IC50(A2780R)/IC50(A2780)) [2] | SI = selectivity index (IC50(MRC5)/IC50(A2780)) [3] | in vitro cytotoxicity against A2780 compared with cisplatin [1] | further results
1 | N.N.[Cl][Pt][Cl] [Cisplatin, cisplatin, reference compound] | 20.3 ± 2.3 µM | > 50 µM | > 50 µM | – | – | – | cell cycle modification (phase arrest) [4]: S-arrest; S cell cycle phase population [4]: 44.8% ± 2.9%
2 | c1ccc([P]([Au][n]2ccc3cccnc32)(c2ccccc2)c2ccccc2)cc1 [Complex 1, [Au(aza)(PPh3)]] | 3.8 ± 1.1 µM | 4.4 ± 0.8 µM | 7.7 ± 1.7 µM | 1.2 | 2.0 | – | cell cycle modification (phase arrest) [4]: G2-arrest; S cell cycle phase population [4]: 7.2% ± 0.9%; G2 cell cycle phase population [4]: 44.0% ± 2.3%; G0/G1 cell cycle phase population [4]: 46.0% ± 2.8%; solubility in the used medium ([5]; cell culture medium, dilution of 50 mM DMF stock): less soluble
3 | Clc1c[n]([Au][P](c2ccccc2)(c2ccccc2)c2ccccc2)c2ncccc12 [Complex 2, [Au(3Claza)(PPh3)]] | 22.4 ± 5.7 µM | 21.7 ± 0.8 µM | 31.4 ± 4.9 µM | 1.0 | 1.4 | comparable | –
4 | Brc1c[n]([Au][P](c2ccccc2)(c2ccccc2)c2ccccc2)c2ncccc12 [Complex 3, [Au(3Braza)(PPh3)]] | 23.3 ± 3.4 µM | 21.3 ± 0.8 µM | 27.3 ± 1.7 µM | 0.9 | 1.2 | comparable | –
5 | Ic1c[n]([Au][P](c2ccccc2)(c2ccccc2)c2ccccc2)c2ncccc12 [Complex 4, [Au(3Iaza)(PPh3)]] | 3.5 ± 0.4 µM | 11 ± 4.7 µM | 29.2 ± 5.9 µM | – | 8.3 | – | –
6 | Brc1cnc2c(cc[n]2[Au][P](c2ccccc2)(c2ccccc2)c2ccccc2)c1 [Complex 5, [Au(5Braza)(PPh3)]] | 3.1 ± 0.5 µM | 14.4 ± 3.3 µM | 26 ± 4.2 µM | – | 8.4 | – | cell cycle modification (phase arrest) [4]: G2-arrest; S cell cycle phase population [4]: 9.1% ± 2.1%; G2 cell cycle phase population [4]: 30.4% ± 2.9%; G0/G1 cell cycle phase population [4]: 58.1% ± 5.8%
7 | Clc1c[n]([Au][P](c2ccccc2)(c2ccccc2)c2ccccc2)c2ncc(Br)cc12 [Complex 6, [Au(3Cl5Braza)(PPh3)]] | 22.9 ± 2.3 µM | 13.8 ± 2.1 µM | 26.5 ± 3.7 µM | 0.6 | 1.2 | comparable | –
8 | Brc1cnc2c(c1)c(I)c[n]2[Au][P](c1ccccc1)(c1ccccc1)c1ccccc1 [Complex 7, [Au(3I5Braza)(PPh3)]] | 20.2 ± 2.5 µM | 22.1 ± 0.3 µM | 27.3 ± 2.6 µM | 1.1 | 1.4 | comparable | –
9 | Cc1cc2c(Cl)ccnc2[n]1[Au][P](c1ccccc1)(c1ccccc1)c1ccccc1 [Complex 8, [Au(2Me4Claza)(PPh3)]] | 2.8 ± 0.7 µM | 8.9 ± 3.8 µM | 26.9 ± 3.6 µM | – | 9.6 | more than seven times higher | hydrolytic stability [6]: hydrolytically stable; interaction with BSA [7]: replaces the N-donor ligand 2Me4Claza; solubility in water [5]: low solubility in water
10 | [Cl][Au].c1ccc(P(c2ccccc2)c2ccccc2)cc1 [[AuCl(PPh3)], chlorido-triphenylphosphanegold(I) complex] | – | – | – | – | – | – | stability in DMF-d7 [8]: low stability
11 | CC[PH](CC)(CC)[Au][S][C@@H]1O[C@H](COC(C)=O)[C@@H](OC(C)=O)[C@H](OC(C)=O)[C@H]1OC(C)=O [auranofin, triethylphosphane-(2,3,4,6-tetra-O-acetyl-β-D-thiopyranosato)gold(I) complex] | – | – | – | – | – | – | potency in vitro against A2780 cells relative to cisplatin [9]: ca. three-fold higher; RF (resistance factor) [10]: ca. 0.9; sub-G1 cell cycle phase population increase [11]: > 13%; cell cycle arrest [12]: G0/G1 cell cycle arrest
